Experiment [1] deals with Human indoleamine 2,3-dioxygenase1 (hIDO1) (Homo sapiens (Human), UniProt P14902). The experiment in a line: In-vitro IDO1 enzyme assay (conversion of L-tryptophan to KYN). The format is biochemical. The note with it: read-out: IC50 (IDO1) Enz. In outline:
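Kynurenine formation quantified by HPLC absorbance at 360 nm or LC/MS/MS after TCA quench and 15 min at 65 °C. Reaction: 10 nM N-His hIDO1, 30 μM tryptophan, ascorbate/methylene blue/catalase, pH 6.5 phosphate buffer, 37 °C for 30 min. Inhibition relative to 1% DMSO vehicle, fitted to IC50.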

The next experiment deals with IDO1 in HeLa cells (Homo sapiens (Human), UniProt P14902). In words: HeLa cell based IDO1 assay (IFNγ-induced, KYN in supernatant). In outline:
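Kynurenine in the supernatant, quantified by C-18 HPLC with 360 nm absorbance after TCA hydrolysis (65 °C, 15 min), was the read-out. Compounds (typically 10 μM to 1 nM) were added in HBSS containing 80 μM tryptophan to HeLa cells pre-induced overnight with 50 ng/mL IFNγ. IC50 came from nonlinear fits of % inhibition versus 1% DMSO vehicle.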

In experiment [2] the target is Human TDO (hTDO)-transfected CHO-K1 cells (Homo sapiens (Human), UniProt P48775). The experiment in a line: CHO-K1 cell based TDO assay. The note with it: hTDO cellular assay. In outline:
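Kynurenine output was read by LC/MS/MS after TCA precipitation and 15 min at 65° C. Before that, CHO-K1 cells stably carrying human TDO2 were incubated 2 h with compounds (typically 31 μM to 10 nM) and 80 μM L-tryptophan in HBSS. Decrease versus DMSO vehicle gave percent inhibition, then IC50.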

Human indoleamine 2,3-dioxygenase1 (hIDO1), sequence (P14902 whole entry): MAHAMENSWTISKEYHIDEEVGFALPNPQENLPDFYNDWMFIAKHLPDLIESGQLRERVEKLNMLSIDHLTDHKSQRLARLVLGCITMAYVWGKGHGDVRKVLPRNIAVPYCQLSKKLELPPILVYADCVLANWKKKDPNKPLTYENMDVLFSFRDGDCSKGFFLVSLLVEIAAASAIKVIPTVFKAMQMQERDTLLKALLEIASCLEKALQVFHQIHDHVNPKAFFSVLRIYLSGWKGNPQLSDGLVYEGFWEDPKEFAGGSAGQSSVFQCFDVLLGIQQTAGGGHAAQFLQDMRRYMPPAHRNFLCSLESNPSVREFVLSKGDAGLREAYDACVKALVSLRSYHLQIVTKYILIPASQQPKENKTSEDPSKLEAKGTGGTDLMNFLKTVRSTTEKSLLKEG
IDO1 in HeLa cells, sequence (P14902 whole entry): as above
Human TDO (hTDO)-transfected CHO-K1 cells, sequence (P48775 whole entry): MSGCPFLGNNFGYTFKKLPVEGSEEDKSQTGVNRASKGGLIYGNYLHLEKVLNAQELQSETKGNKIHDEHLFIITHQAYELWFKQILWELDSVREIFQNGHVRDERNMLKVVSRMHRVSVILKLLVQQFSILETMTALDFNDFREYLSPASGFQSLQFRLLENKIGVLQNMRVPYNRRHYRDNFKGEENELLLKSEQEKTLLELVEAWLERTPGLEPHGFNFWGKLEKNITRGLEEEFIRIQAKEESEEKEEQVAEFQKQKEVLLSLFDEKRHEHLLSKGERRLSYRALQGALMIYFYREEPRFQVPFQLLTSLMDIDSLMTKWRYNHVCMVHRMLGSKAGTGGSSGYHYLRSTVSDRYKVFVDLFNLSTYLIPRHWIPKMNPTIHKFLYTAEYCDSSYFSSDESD

As for `O=C(Nc1oc2cnccc2c1Nc1ccc(F)c(Cl)c1)OCc1ccccc1` [Compound 139, Benzyl (3-((3-chloro-4-fluorophenyl)amino)furo[2,3-c]pyridin-2-yl)carbamate], the figures for the IC50 (in experiment [1]; on IDO1 in HeLa cells; in experiment [2]) were above 1 µM, above 1 µM and 0.5 to 2 µM, respectively.
As for `Nc1oc2c(-c3ccc(F)cc3)nccc2c1Nc1ccc(F)c(Cl)c1` [Compound 147, N^3-(3-Chloro-4-fluorophenyl)-7-(4-fluorophenyl)furo[2,3-c]pyridine-2,3-diamine], the IC50 in experiment [1] was below 0.2 µM; against IDO1 in HeLa cells it was below 0.2 µM; in experiment [2] it was 0.5 to 2 µM.
`Cn1cc(-c2nccc3c(Nc4ccc(F)c(Cl)c4)c(N)oc23)cn1` [Compound 148, N^3-(3-Chloro-4-fluorophenyl)-7-(1-methyl-1H-pyrazol-4-yl)furo[2,3-c]pyridine-2,3-diamine]: the IC50 in experiment [1] was below 0.2 µM; against IDO1 in HeLa cells, below 0.2 µM; in experiment [2], 0.5 to 2 µM.
In the case of `N#Cc1ccc(-c2nccc3c(Nc4ccc(F)c(Cl)c4)c(N)oc23)cc1` [Compound 149, 4-(2-Amino-3-((3-chloro-4-fluorophenyl)amino)furo[2,3-c]pyridin-7-yl)benzonitrile], the IC50 in experiment [1] was below 0.2 µM; against IDO1 in HeLa cells, below 0.2 µM; in experiment [2], 0.5 to 2 µM.
As for `NC(=O)c1ccc(-c2nccc3c(Nc4ccc(F)c(Cl)c4)c(N)oc23)cc1` [Compound 151, 4-(2-Amino-3-((3-chloro-4-fluorophenyl)amino)furo[2,3-c]pyridin-7-yl)benzamide], the IC50 in experiment [1] is below 0.2 µM; at IDO1 in HeLa cells, below 0.2 µM; in experiment [2], 0.5 to 2 µM.
As to `COC(=O)c1ccc(-c2nccc3c(Nc4ccc(F)c(Cl)c4)c(N)oc23)cc1` [Compound 152, Methyl 4-(2-amino-3-((3-chloro-4-fluorophenyl)amino)furo[2,3-c]pyridin-7-yl)benzoate], the IC50 is below 0.2 µM in experiment [1], below 0.2 µM against IDO1 in HeLa cells and 0.5 to 2 µM in experiment [2].
Regarding `Nc1oc2c(I)nccc2c1Nc1ccc(F)c(Cl)c1` [Compound 153, N^3-(3-Chloro-4-fluorophenyl)-7-iodofuro[2,3-c]pyridine-2,3-diamine], the IC50 in experiment [1] is below 0.2 µM; against IDO1 in HeLa cells it was below 0.2 µM; in experiment [2], below 0.5 µM.
On to `Nc1oc2c(-c3ccnc(N4CCOCC4)c3)nccc2c1Nc1ccc(F)c(Cl)c1` [Compound 154, N^3-(3-Chloro-4-fluorophenyl)-7-(2-morpholinopyridin-4-yl)furo[2,3-c]pyridine-2,3-diamine], for which the IC50 in experiment [1] is below 0.2 µM; at IDO1 in HeLa cells, below 0.2 µM; in experiment [2] it was above 2 µM.
For the compound `Cc1cc(-c2nccc3c(Nc4ccc(F)c(Cl)c4)c(N)oc23)ccn1` [Compound 158, N^3-(3-chloro-4-fluorophenyl)-7-(2-methylpyridin-4-yl)furo[2,3-c]pyridine-2,3-diamine], the IC50 in experiment [1] was below 0.2 µM; against IDO1 in HeLa cells, below 0.2 µM; in experiment [2] it was 0.5 to 2 µM.
On to `Nc1oc2c(Br)nccc2c1Nc1ccc(F)c(Cl)c1` [Compound 159, 7-Bromo-N^3-(3-chloro-4-fluorophenyl)furo[2,3-c]pyridine-2,3-diamine], for which the IC50 in experiment [1] is below 0.2 µM; against IDO1 in HeLa cells it was below 0.2 µM; in experiment [2], below 0.5 µM.
As to `Cc1cc(-c2nccc3c(Nc4ccc(F)c(Cl)c4)c(N)oc23)cc(C)n1` [Compound 164, N^3-(3-Chloro-4-fluorophenyl)-7-(2,6-dimethylpyridin-4-yl)furo[2,3-c]pyridine-2,3-diamine], the values for the IC50 (in experiment [1]; against IDO1 in HeLa cells; in experiment [2]) were below 0.2 µM, below 0.2 µM and above 2 µM, respectively.
In the case of `COc1cc2c(Nc3ccc(F)c(Cl)c3)c(N)oc2c(I)n1` [Compound 167, N^3-(3-Chloro-4-fluorophenyl)-7-iodo-5-methoxyfuro[2,3-c]pyridine-2,3-diamine], the figures for the IC50 (in experiment [1]; on IDO1 in HeLa cells; in experiment [2]) were below 0.2 µM, below 0.2 µM and above 2 µM, respectively.
